Reference: patent publication US6803380B1, “5-aryl-1h-1,2,4-triazole compounds as inhibitors of cyclooxygenase-2 and pharmaceutical compositions containing them” (Laboratoire Theramex, priority 1999, dated 2004)

What was measured:
Cox-2 [1] = biological target: T1, Cox-2 (Homo sapiens, UniProt P35354); settings: literature; cited from earlier work
T1 sequence (P35354 18-604): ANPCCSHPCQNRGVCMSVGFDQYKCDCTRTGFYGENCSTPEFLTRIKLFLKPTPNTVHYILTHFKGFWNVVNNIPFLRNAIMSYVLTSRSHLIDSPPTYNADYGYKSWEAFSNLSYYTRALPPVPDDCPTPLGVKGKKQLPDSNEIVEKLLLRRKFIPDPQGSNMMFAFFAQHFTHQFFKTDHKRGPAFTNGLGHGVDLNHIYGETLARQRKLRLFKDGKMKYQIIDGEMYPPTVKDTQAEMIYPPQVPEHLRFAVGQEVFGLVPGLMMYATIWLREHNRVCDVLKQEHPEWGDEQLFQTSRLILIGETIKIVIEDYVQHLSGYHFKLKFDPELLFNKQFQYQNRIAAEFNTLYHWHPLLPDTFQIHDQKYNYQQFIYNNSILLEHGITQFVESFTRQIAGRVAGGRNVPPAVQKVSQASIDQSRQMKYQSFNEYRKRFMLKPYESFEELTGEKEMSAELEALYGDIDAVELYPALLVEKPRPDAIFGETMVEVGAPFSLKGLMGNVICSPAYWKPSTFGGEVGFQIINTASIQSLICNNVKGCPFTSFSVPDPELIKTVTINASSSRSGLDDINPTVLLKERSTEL

cyclooxygenase-2 = biological target: T2, cyclooxygenase-2 (Homo sapiens, UniProt P35354); settings: literature; cited from earlier work
T2 sequence (P35354 18-604): T1 sequence (P35354 18-604)

cyclooxygenase-1 = cyclooxygenase-1 (Homo sapiens, UniProt P23219); settings: literature; cited from earlier work
COX-2 [2] = biological target: T3, COX-2 (Ovis aries, UniProt P79208); assay: Inhibition of purified COX-2 activity in vitro (PGE2 by enzymo-immunoassay); format: biochemical, ewe; settings: concentration 1 μM; for inhibition at 1 µM: read-out: % COX-2 inhibition
T3 construct: purified COX-2 from ewe placenta; purchased Cayman Chemicals; host or cells: ewe placenta (tissue-purified)
T3 sequence (P79208 17-603): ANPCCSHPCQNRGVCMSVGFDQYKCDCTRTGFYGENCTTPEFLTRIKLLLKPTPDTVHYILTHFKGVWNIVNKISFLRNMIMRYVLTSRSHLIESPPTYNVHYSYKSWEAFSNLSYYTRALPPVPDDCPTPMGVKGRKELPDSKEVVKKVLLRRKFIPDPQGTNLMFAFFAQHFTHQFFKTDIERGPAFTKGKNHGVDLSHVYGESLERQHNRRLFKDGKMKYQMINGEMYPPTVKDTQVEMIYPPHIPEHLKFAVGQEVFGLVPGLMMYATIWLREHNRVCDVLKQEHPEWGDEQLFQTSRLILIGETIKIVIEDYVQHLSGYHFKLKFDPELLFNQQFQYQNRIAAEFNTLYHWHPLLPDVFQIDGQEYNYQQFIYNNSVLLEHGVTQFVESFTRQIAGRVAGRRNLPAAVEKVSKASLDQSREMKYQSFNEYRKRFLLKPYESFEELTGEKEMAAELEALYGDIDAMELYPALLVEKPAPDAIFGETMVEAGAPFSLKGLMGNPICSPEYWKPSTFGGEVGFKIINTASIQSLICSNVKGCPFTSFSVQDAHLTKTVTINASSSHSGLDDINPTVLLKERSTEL
Method: (§1) Example compounds according to the invention were tested for their ability to inhibit COX-1 and/or COX-2 activities in vitro. Purified COX-1 from ram seminal vesicles and purified COX-2 from ewe placenta (both from Cayman Chemicals) were incubated for 10 minutes at 25° C. in the presence of their substrate, arachidonic acid (5 μM), with or without test compounds or standard inhibitors. Prostaglandin E2, the reaction product, was measured by enzymo-immunoassay (R&D Systems). Each individual value results from duplicate determinations. Final inhibition data are means±standard errors of at least (3) independent experiments performed on as many different days.

COX-1 = biological target: T4, COX-1 (Ovis aries, UniProt P05979); assay: Inhibition of purified COX-1 activity in vitro (PGE2 by enzymo-immunoassay); format: biochemical, ram; settings: concentration 1 μM; for % COX-1 inhibition: negative sign = inhibition
T4 construct: Purified COX-1 from ram seminal vesicles; purchased Cayman Chemicals; host or cells: ram seminal vesicles (tissue-purified)
T4 sequence (P05979 25-600): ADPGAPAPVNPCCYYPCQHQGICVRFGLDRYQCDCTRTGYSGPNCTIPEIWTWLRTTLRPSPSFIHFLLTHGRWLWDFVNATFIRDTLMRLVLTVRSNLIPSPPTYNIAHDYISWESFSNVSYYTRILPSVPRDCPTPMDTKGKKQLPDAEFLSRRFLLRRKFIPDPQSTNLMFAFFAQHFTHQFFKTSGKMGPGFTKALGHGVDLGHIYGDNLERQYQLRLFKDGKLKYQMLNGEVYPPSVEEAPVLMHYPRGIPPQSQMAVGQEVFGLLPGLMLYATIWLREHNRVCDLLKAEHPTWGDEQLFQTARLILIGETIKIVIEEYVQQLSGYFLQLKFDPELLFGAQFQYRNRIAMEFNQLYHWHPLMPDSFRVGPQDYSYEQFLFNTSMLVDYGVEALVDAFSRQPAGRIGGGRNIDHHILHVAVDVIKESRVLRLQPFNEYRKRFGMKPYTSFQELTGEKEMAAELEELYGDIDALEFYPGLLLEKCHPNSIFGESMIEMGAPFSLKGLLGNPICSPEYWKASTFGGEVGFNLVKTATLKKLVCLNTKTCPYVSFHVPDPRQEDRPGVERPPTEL
Method: as §1

Sequence of cyclooxygenase-1 (P23219 24-599, species assumed): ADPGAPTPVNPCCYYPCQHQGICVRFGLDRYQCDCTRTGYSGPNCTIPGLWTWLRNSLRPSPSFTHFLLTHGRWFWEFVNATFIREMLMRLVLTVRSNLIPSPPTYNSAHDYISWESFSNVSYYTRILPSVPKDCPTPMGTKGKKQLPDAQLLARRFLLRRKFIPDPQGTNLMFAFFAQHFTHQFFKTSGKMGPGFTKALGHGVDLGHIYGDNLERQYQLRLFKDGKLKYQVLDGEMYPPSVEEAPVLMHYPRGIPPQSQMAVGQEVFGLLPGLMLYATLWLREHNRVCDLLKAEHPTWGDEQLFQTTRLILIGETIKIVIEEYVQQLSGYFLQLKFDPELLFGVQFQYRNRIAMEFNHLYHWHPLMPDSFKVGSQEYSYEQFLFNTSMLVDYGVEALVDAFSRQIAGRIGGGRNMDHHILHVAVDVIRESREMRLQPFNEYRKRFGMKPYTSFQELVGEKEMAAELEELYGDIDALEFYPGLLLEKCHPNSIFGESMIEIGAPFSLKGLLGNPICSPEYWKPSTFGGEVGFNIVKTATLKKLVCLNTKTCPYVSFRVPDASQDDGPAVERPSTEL

selective inhibition of COX-2 (in words) (COX-2 [2]) | inhibition at 1 µM (COX-2 [2]) [%] | % COX-1 inhibition (COX-1) | melting point [°C] | Structure (SMILES) | Cox-2 inhibitory activity (in words) (Cox-2 [1]) | inhibition of cyclooxygenase-2 (in words) (cyclooxygenase-2) | inhibition of cyclooxygenase-1 (in words) (cyclooxygenase-1) | inhibition of COX-1 (in words) (COX-1)
 |  |  |  | Fc1ccc(-c2nc(C(F)(F)F)nn2-c2ccc(Cl)cc2)cc1 [compound (a)] | moderate Cox-2 inhibitory activity |  |  | 
 |  |  |  | CS(=O)(=O)c1ccc(-c2nc(C#N)nn2-c2ccc(F)cc2)cc1 [compound (b)] |  | weak and non selective inhibitors | weak and non selective inhibitors | 
able to inhibit COX-2 selectively | 18 ± 7 | +2 ± 7.0% | 200 | Cc1nc(-c2ccc(S(C)(=O)=O)cc2)n(-c2ccc(N(C)C)cc2)n1 [Example 15, 1-(4-dimethylamino-phenyl)-3-methyl-5-(4-methylsulfonyl-phenyl)-1H-1,2,4-triazole] |  |  |  | did not show any significant inhibition of COX-1
able to inhibit COX-2 selectively | 31 ± 10 | −5 ± 9% | 188 | CS(=O)(=O)Nc1ccc(-n2nc(C(F)(F)F)nc2-c2ccc(S(C)(=O)=O)cc2)cc1 [Example 25, 1-(4-methylsulfonylamino-phenyl)-5-(4-methylsulfonyl-phenyl)-3-trifluoromethyl-1H-1,2,4-triazole] |  |  |  | did not show any significant inhibition of COX-1
